Tests used:
MDA-LM2 cells = experiment: Boyden chamber invasion assay, MDA-LM2; assay type: cell-based; conditions: LNA-21 100 nM, 2 1000 nM
Description: Boyden Chamber Invasion Assay. The MDA-MB-231, MDA-LM2, A375, A549, or MCF-10a cells (5×10^4) were seeded into Hanging Cell Culture Inserts for 24 well plates with uncoated membranes with 8.0 μm pores (Millicell) in serum free growth media. A 3 mg/mL layer (100 μL) of Matrigel (Fisher Scientific: CB40234) diluted with serum free growth media was prepared inside of each membrane. Cells were cultured as described above, with or without compound treatment, and allowed to invade towards complete growth media in the bottom well for 16-24 h before ending the experiment by removing the media in the bottom wells and inserts. The hanging cell culture inserts and bottom wells were washed twice with 1×PBS, gently shaking to mix. Excess liquid and cells inside the insert were removed with cotton swabs, after which 400 μL of 4% paraformaldehyde was placed into the bottom well and incubated for 20 min at room temperature to fix the cells. […] Four different fields of view from each captured image were counted for crystal violet stained or unstained cells. Normalized cells invaded was calculated with equation 5 (Eq 5): […]
where stained cells represent cells counted with crystal violet stain observed in the compound treated or vehicle treated samples, respectively.

pre-miR-21 = experiment: Measurement of catalytic activity in MDA-MB-231 cells; assay type: cell-based, human
Description: Measurement of Catalytic Activity. The MDA-MB-231 cells were plated into a 24-well plates (Corning). At ˜80% confluency, the media was aspirated and the cell monolayer was washed with 1×DPBS. Cells were then incubated with 5 (500 nM) or vehicle (DMSO) diluted in cell culture medium for 24 h. Cells were then lysed using 250 μL of RNA Lysis Buffer from a Quick-RNA MiniPrep Kit (Zymo Research). A 100 μL aliquot was transferred to black, non-binding surface, half area 96-well plates (Corning). Fractions of untreated cell lysate were combined and used to generate a standard curve of 5 in cell lysate, by spiking in known concentrations of 5. Fluorescence intensity (Ex: 345 nm, Em: 460 nm) was then measured on a Molecular Devices SpectraMax M5 plate reader to determine compound concentration in cell lysate. Using the generated standard curve, the concentration of 5 in the […] cell lysate aliquot was then used to extrapolate the amount of 5 in pmol in the full 250 μL volume.
RNA was extracted from the cell lysates, followed by RT-qPCR as described above. A standard curve was generated for the pre-miR-21 WT transcript using in vitro transcribed pre-miR-21 (10 ng, 1 ng, 0.1 ng, 0.01 ng, 0.001 ng, 0.0001 ng, 0 ng) completed with each run to accurately calibrate Ct values. The amount of cleaved pre-miR-21 was then calculated by taking the difference between the pmol of pre-miR-21 in untreated samples and the pmol of pre-miR-21 in 5-treated samples. Catalytic activity, or turnover, was calculated by taking the ratio of the pmol of cleaved pre-miR-21 and the pmol of 5 in the sample.

[1] = system: proteome of MDA-MB-231 cells; experiment: Global proteomics profiling (LC-MS/MS) of MDA-MB-231 cells; assay type: cell-based, human; conditions: 50 nM, versus all proteins
Description: Global proteomics profiling using LC-MS/MS. The MDA-MB-231 cells treated with vehicle (DMSO) or 5 (50 nM) were washed with PBS, harvested by scraping, centrifuged at 1500×g for five minutes at 4° C. and then resuspended in PBS. Cells were lysed by sonication and lysate protein concentrations were determined using a Bradford assay (Bio-Rad). Protein samples (40 μg) were denatured with 6 M urea in 50 mM NH4HCO3, reduced with 10 mM tris(2-carboxyethyl)phosphine hydrochloride (TCEP) for 30 minutes, and then alkylated with 25 mM iodoacetamide for 30 minutes in the dark. Samples were diluted to 2 M urea with 50 mM NH4HCO3, and digested with trypsin (2 μL of 0.5 μg/μL) in the presence of 1 mM CaCl2) for 12 hours at 37° C. […] Samples were analyzed by LC-MS/MS (see below) and the MS data was processed with MaxQuant and Proteome Discoverer (see below).
LC-MS/MS analysis: Peptides were resuspended in water with 0.1% formic acid (FA) and analyzed using an EASY-nLC 1200 nano-UHPLC coupled to Q Exactive HF-X Quadrupole-Orbitrap mass spectrometer (Thermo Scientific). […]
MaxQuant analysis: The MS data was analyzed with MaxQuant (V1.6.1.0)^27 and searched against the human proteome (Uniprot) and a common list of contaminants (included in MaxQuant). […] The minimum peptide length was set to 6 amino acids and peptide re-quantification and label-free quantification (MaxLFQ) were enabled. […]

Structure (SMILES)	effect on invasion (MDA-LM2 cells)	Average pre-miR-21 (pre-miR-21; 500 nM, 24 h, MDA-MB-231, mean ± s.d. (n = 6)) [pmol]	Cleaved pre-miR-21 (pre-miR-21; 500 nM, 24 h, difference untreated minus treated, mean ± s.d.) [pmol]	Turnovers (pre-miR-21; 500 nM, 24 h, ratio Cleaved pre-miR-21 / 5 Detected, mean ± s.d.)	moles of pre-miR-21 cleaved by one mole of compound (pre-miR-21; MDA-MB-231) [mol]	median log fold-change of predicted downstream protein targets of miR-21 [1]
CCCN(CC(=O)N(CCC)CC(=O)N(CCC)CC(=O)N(CC(N)=O)Cc1cn(CCCNC(=O)CCCOc2ccc(-c3nc4cc(-c5ccc(N6CCN(C)CC6)cc5)ccc4[nH]3)cc2)nn1)C(=O)CNCc1cn(CCCNC(=O)CCCOc2ccc(-c3nc4cc(-c5ccc(N6CCN(C)CC6)cc5)ccc4[nH]3)cc2)nn1 [Compound 2]	decreased the invasive phenotype	–	–	–	–	–
CCCN(CC(=O)N(CCC)CC(=O)N(CCC)CC(=O)N(CC(=O)NCCOCCOCCOCCOc1ccc(C=C2SC(Nc3ccccc3)=C(C(=O)OCC)C2=O)cc1O)Cc1cn(CCCNC(=O)CCCOc2ccc(-c3nc4cc(-c5ccc(N6CCN(C)CC6)cc5)ccc4[nH]3)cc2)nn1)C(=O)CN(Cc1cn(CCCNC(=O)CCCOc2ccc(-c3nc4cc(-c5ccc(N6CCN(C)CC6)cc5)ccc4[nH]3)cc2)nn1)C(C)=O [Compound 5]	–	16 ± 3.8	68 ± 6.7	26 ± 2.5	26	significantly upregulated relative to all proteins

From patent US12617757B2, “Compounds and modules for inhibition of pre-miR-21 and their use in treatment of certain cancers” (University of Florida Research Foundation, Incorporated, priority 2019, dated 2026)
